The text below walks through data of US8632759B2, “Hair restorer” (Cosmo Oil Co., Ltd., priority 2004, dated 2014).

For the test, the system named is C3H/HeNCrJ mice. Kind of test: Hair growth test on clipped backs of mice. The format is in vivo. Particulars: C3H/HeNCrJ mice in telogen phase, n=3; 0.2 ml sprayed on clipped back once a day; hair measured under microscope. An excerpt: In Table 1,5-aminolevulinic acid (sometimes abbreviated as ALA) of the present invention and iron compounds, and the blend compositions of them and urea are shown in wt %. For 1 g of ALA, 0.4 g of ferrous citrate, 2.81 g of iron lactate, 5.7 g of iron sodium diethylenetriaminepentaacetate, 5.6 g of iron ammonium diethylenetriaminepentaacetate, and 0.36 g of ferrous gluconate were blended respectively. The body hair on the backs of C3H/HeNCrJ mice (n=3 in each group), which were in telogen phase of hair growth cycle, was clipped with a hair clipper, and each suspension shown in Table 1 was applied to the back once a day, in an amount of 0.2 ml, by spraying uniformly.
In addition, photographs of the backs of mice on which the sample No. 8 of the present invention, 5% minoxidil (positive control), and distilled water (negative control) were respectively applied were taken 20 days after the application.

In the case of `Nc1cc(N2CCCCC2)nc(N)[n+]1[O-]` [5% Minoxidil, 6-(1-piperidinyl)-2,4-pyrimidinediamine-3-oxide], the “Hair Length after 2 weeks” value turned out to be 1.70 mm.

Turning to `NCC(=O)CCC(=O)O` [Control, 5-aminolevulinic acid], the “Hair Length after 2 weeks” value came out at 1.08 mm.
